Converted amounts (≈) assume the structure as drawn.
Key:
Assay in all cases: microbe, parasite or virus in culture
Format in all cases: functional
Staphylococcus aureus [1] = details: ATCC 25923, 24 h
Description: Antibacterial activity against methicillin- resistant Staphylococcus aureus ATCC 25923 after 24 hrs by spectrophotometry

Staphylococcus aureus [2] = details: ATCC 29213, 24 h
Description: Antibacterial activity against methicillin- resistant and vancomycin resistant Staphylococcus aureus ATCC 29213 after 24 hrs by spectrophotometry

Klebsiella pneumoniae = details: ATCC 27736, 24 h
Description: Antibacterial activity against Klebsiella pneumoniae ATCC 27736 after 24 hrs by spectrophotometry

| SMILES | MIC (Staphylococcus aureus [1]) [µg/mL] | MIC (Staphylococcus aureus [2]) [µg/mL] | MIC (Klebsiella pneumoniae) [µg/mL] |
| --- | --- | --- | --- |
| CCn1cc(C(=O)O)c(=O)c2cc(F)c(N3CCN(Cc4ccccc4)CC3)c(F)c21 | 0.19 (≈ 0.444 µM) | 0.19 (≈ 0.444 µM) | 0.011 (≈ 0.0257 µM) |
| CCn1cc(C(=O)O)c(=O)c2cc(F)c(N3CCN(c4ccccc4)CC3)c(F)c21 | 0.39 (≈ 0.943 µM) | 0.09 (≈ 0.218 µM) | 0.09 (≈ 0.218 µM) |
| CCn1cc(C(=O)O)c(=O)c2cc(F)c(N3CCOCC3)c(F)c21 | 0.022 (≈ 0.065 µM) | 0.045 (≈ 0.133 µM) | 0.022 (≈ 0.065 µM) |
| CCn1cc(C(=O)O)c(=O)c2cc(F)c(N3CCCCC3)c(F)c21 | 0.19 (≈ 0.565 µM) | 0.39 (≈ 1.16 µM) | 0.19 (≈ 0.565 µM) |
| CCN1CCN(c2c(F)cc3c(=O)c(C(=O)O)cn(CC)c3c2F)CC1 | 0.78 (≈ 2.13 µM) | 0.39 (≈ 1.07 µM) | 0.19 (≈ 0.52 µM) |
| CCn1cc(C(=O)O)c(=O)c2cc(F)c(NCCN3CCOCC3)c(F)c21 | 3.12 (≈ 8.18 µM) |  | 1.56 (≈ 4.09 µM) |
| CCn1cc(C(=O)O)c(=O)c2cc(F)c(NCCCN3CCOCC3)c(F)c21 | 3.12 (≈ 7.89 µM) |  | 1.56 (≈ 3.95 µM) |
| CCCCNc1c(F)cc2c(=O)c(C(=O)O)cn(CC)c2c1F | 0.39 (≈ 1.2 µM) | 0.39 (≈ 1.2 µM) | 0.022 (≈ 0.0678 µM) |
| CCn1cc(C(=O)O)c(=O)c2cc(F)c(NC(C)(C)C)c(F)c21 | 12.5 (≈ 38.5 µM) |  | 0.09 (≈ 0.277 µM) |
| CCCNc1c(F)cc2c(=O)c(C(=O)O)cn(CC)c2c1F | 12.5 (≈ 40.3 µM) |  | 0.78 (≈ 2.51 µM) |
| CCn1cc(C(=O)O)c(=O)c2cc(F)c(NC(C)C)c(F)c21 | 0.78 (≈ 2.51 µM) | 0.78 (≈ 2.51 µM) | 0.09 (≈ 0.29 µM) |
| O=C(O)c1cn(Cc2ccc(C(F)(F)F)cc2)c2c(F)c(N3CCOCC3)c(F)cc2c1=O | 12.5 (≈ 26.7 µM) |  | 12.5 (≈ 26.7 µM) |
| O=C(O)c1cn(Cc2ccc(C(F)(F)F)cc2)c2c(F)c(N3CCCCC3)c(F)cc2c1=O | > 50 |  | 12.5 (≈ 26.8 µM) |
| O=C(O)c1cn(Cc2ccc(C(F)(F)F)cc2)c2c(F)c(N3CCNCC3)c(F)cc2c1=O | > 50 |  | 12.5 (≈ 26.7 µM) |
| CN1CCN(c2c(F)cc3c(=O)c(C(=O)O)cn(Cc4ccc(C(F)(F)F)cc4)c3c2F)CC1 | > 50 |  | > 50 |
| CCN1CCN(c2c(F)cc3c(=O)c(C(=O)O)cn(Cc4ccc(C(F)(F)F)cc4)c3c2F)CC1 | > 50 |  | > 50 |
| O=C(O)c1cn(Cc2ccc(C(F)(F)F)cc2)c2c(F)c(N3CCN(c4ccccc4)CC3)c(F)cc2c1=O | 0.78 (≈ 1.44 µM) | 1.56 (≈ 2.87 µM) | 0.39 (≈ 0.718 µM) |
| O=C(O)c1cn(Cc2ccc(C(F)(F)F)cc2)c2c(F)c(N3CCN(Cc4ccccc4)CC3)c(F)cc2c1=O | 1.56 (≈ 2.8 µM) |  | 1.56 (≈ 2.8 µM) |
| O=C(O)c1cn(Cc2ccc(C(F)(F)F)cc2)c2c(F)c(NCCN3CCOCC3)c(F)cc2c1=O | > 50 |  | 12.5 (≈ 24.4 µM) |
| O=C(O)c1cn(Cc2ccc(C(F)(F)F)cc2)c2c(F)c(NCCCN3CCOCC3)c(F)cc2c1=O | > 50 |  | 25 (≈ 47.6 µM) |
| CCCCNc1c(F)cc2c(=O)c(C(=O)O)cn(Cc3ccc(C(F)(F)F)cc3)c2c1F | > 50 |  | > 50 |
| CC(C)(C)Nc1c(F)cc2c(=O)c(C(=O)O)cn(Cc3ccc(C(F)(F)F)cc3)c2c1F | > 50 |  | > 50 |
| CCCNc1c(F)cc2c(=O)c(C(=O)O)cn(Cc3ccc(C(F)(F)F)cc3)c2c1F | 1.56 (≈ 3.54 µM) |  | 3.12 (≈ 7.08 µM) |
